From US20260053171A1, “METHANOGEN INHIBITORS” (AGRIZERONZ LIMITED PARTNERSHIP, priority 2022, published 2026)

Tested on: methane production in rumen fluid
Test: Rumen in vitro (RIV) assay, methane production from rumen fluid incubations
Type: cell-based, cattle
Details: Bos taurus, read-out: RIV % methane reduction +/− SD
Protocol: The compounds of the present invention were initially screened for activity using an in vitro fully automated incubation system for the measurement of total gas production and gas composition (methane and hydrogen). The system used is described in detail in the paper by Muetzel et al. (2014; Animal Feed Science and Technology 196, 1-11). The system in this specification is referred to as the rumen in vitro system or RIV. The RIV system provides a relatively simple tool for determining the rate and production of methane and also whether the rate and production of methane is inhibited or reduced by a particular compound or feed. Rumen in vitro assays use rumen fluid from donor animals (typically either sheep or cattle) which is typically combined with a buffer and then incubated in sealed fermentation vessels at 39° C. for either 24 or 48 h. These assays systems have been well-characterised and used by the scientific community over the last two decades (Rymer et al. 2005). The system that has been used here to characterise the effects of inhibitors on methane production and gas production, and the formation of H2, was described by Muetzel et al. (2014). Rumen in vitro assay systems reflect what can occur in the rumen in vivo, but only short-term, due to their short incubation times (typically not exceeding 48 h) which is limited by its buffering capacity and the fact that it is a closed system. Stock solutions of inhibitors were re-suspended in dimethylformamide (DMF) at concentrations 1000-fold higher than the highest used for the assays. Any further dilutions were also prepared using DMF. The total amount of inhibitor solution added to the rumen fluid-buffer mixture (60 mL) was 60 μl. Incubations used 60 ml of medium containing 12 ml of filtered rumen fluid and 48 ml of buffer in serum bottles for 24-48 h, essentially as described by Muetzel et al. (2014). Two fistulated cattle were used as donor animals for rumen fluid and treatments were incubated in duplicate bottles. Sets of duplicate incubation vials that contained ryegrass (with rumen fluid-buffer mixture), and ryegrass with 30 μM bromoethanesulfonate (BES) were also incubated as negative and positive controls, respectively. One experiment consists of 2 replicates of an inhibitor at any one concentration run at the same time, and a run can contain up to 32 bottle, including positive (30 µM BES) and negative (no inhibitor added) controls. Compound 1, for example, was tested using the 60 mL rumen in vitro assay system at 50 μM, 10 μM, and 2 μM final concentrations and compared to a positive control with 30 µM BES.

| Compound | inhibition at 2 µM [%] | inhibition at 10 µM [%] | inhibition at 50 µM [%] |
| --- | --- | --- | --- |
| O=C(O)CCC(=O)N1N=C2c3ccc(-c4ccc(OC(F)(F)F)cc4)cc3CCC2C1c1ccc2nccnc2c1 (stereo not shown) [Compound 76, 4-Oxo-4-(3-(quinoxalin-6-yl)-7-(4-(trifluoromethoxy)phenyl)-3,3a,4,5-tetrahydro-2H-benzo[g]indazol-2-yl)butanoic acid] | 21.1 ± 3.2 | 77.3 ± 1.3 | 96.5 |
| O=C(O)CCC(=O)N1N=C2c3cc(-c4ccccc4)ccc3CCC2C1c1ccc2nccnc2c1 (stereo not shown) [Compound 74, 4-Oxo-4-(8-phenyl-3-(quinoxalin-6-yl)-3,3a,4,5-tetrahydro-2H-benzo[g]indazol-2-yl)butanoic acid] | 9 ± 1.9 | 87.8 ± 0.7 | 97.2 ± 0.5 |
| CC(C)COc1ccc(-c2ccc(C3=NN(C(=O)CCC(=O)O)C(c4ccc5nccnc5c4)C3)cc2)cc1 (stereo not shown) [Compound 82, 4-(3-(4′-Isobutoxy-[1,1′-biphenyl]-4-yl)-5-(quinoxalin-6-yl)-4,5-dihydro-1H-pyrazol-1-yl)-4-oxobutanoic acid] | 9.3 ± 7.6 | 75.7 ± 4.6 |  |
| O=C(O)CCC(=O)N1N=C(c2ccc(-c3cc(Cl)cc(Cl)c3)cc2)CC1c1ccc2nccnc2c1 (stereo not shown) [Compound 28, 4-(3-(3′,5′-Dichloro-[1,1′-biphenyl]-4-yl)-5-(quinoxalin-6-yl)-4,5-dihydro-1H-pyrazol-1-yl)-4-oxobutanoic acid] | 8 ± 2.1 | 84 ± 0.8 | 96.1 ± 0.1 |
| O=C(O)CCC(=O)N1N=C2c3ccc(-c4ccccc4)cc3CCC2C1c1ccc2nccnc2c1 (stereo not shown) [Compound 75, 4-Oxo-4-(7-phenyl-3-(quinoxalin-6-yl)-3,3a,4,5-tetrahydro-2H-benzo[g]indazol-2-yl)butanoic acid] | 15.8 ± 4.5 | 87.5 ± 0.6 | 92.8 ± 0.5 |
| COc1cccc(-c2ccc(C3=NN(C(=O)CCC(=O)O)C(c4ccc5nccnc5c4)C3)cc2)c1 (stereo not shown) [Compound 90, 4-(3-(3′-Methoxy-[1,1′-biphenyl]-4-yl)-5-(quinoxalin-6-yl)-4,5-dihydro-1H-pyrazol-1-yl)-4-oxobutanoic acid] |  | 6.9 ± 2.2 | 84.2 |
| CN(C)S(=O)(=O)NC(=O)CCC(=O)N1N=C(c2ccc(Cl)cc2)CC1c1ccc2nccnc2c1 (stereo not shown) [Compound 59, 4-(3-(4-Chlorophenyl)-5-(quinoxalin-6-yl)-4,5-dihydro-1H-pyrazol-1-yl)-N—(N,N-dimethylsulfamoyl)-4-oxobutanamide] | 10.6 ± 2.5 | 86.7 ± 7 | 94.4 ± 4 |
| O=C(O)CCC(=O)N1N=C(c2ccc(-c3ccc(F)cc3)cc2)CC1c1ccc2nccnc2c1 (stereo not shown) [Compound 16, 4-(3-(4′-Fluoro-[1,1′-biphenyl]-4-yl)-5-(quinoxalin-6-yl)-4,5-dihydro-1H-pyrazol-1-yl)-4-oxobutanoic acid] | < 5 | 77.5 ± 2.1 | 96.6 ± 0.2 |
| CS(=O)(=O)NC(=O)CCC(=O)N1N=C(c2ccc(OC(F)(F)F)cc2)CC1c1ccc2nccnc2c1 (stereo not shown) [Compound 56] | < 5 | 72.4 ± 10.6 | 98.6 |
| COc1ccc(-c2ccc(C3=NN(C(=O)CCC(=O)O)C(c4ccc5nccnc5c4)C3)cc2)cc1 (stereo not shown) [Compound 25, 4-(3-(4′-Methoxy-[1,1′-biphenyl]-4-yl)-5-(quinoxalin-6-yl)-4,5-dihydro-1H-pyrazol-1-yl)-4-oxobutanoic acid] | < 5 | 83.7 ± 0.4 |  |
| CN(C)S(=O)(=O)NC(=O)CCC(=O)N1N=C(c2cccc(-c3ccccc3)c2)CC1c1ccc2nccnc2c1 (stereo not shown) [Compound 127, 4-(3-([1,1′-Biphenyl]-3-yl)-5-(quinoxalin-6-yl)-4,5-dihydro-1H-pyrazol-1-yl)-N—(N,N-dimethylsulfamoyl)-4-oxobutanamide] | 16.8 ± 0.7 | 84.1 ± 3 |  |
| O=C(O)CCC(=O)N1N=C(c2cccc(-c3ccccc3)c2)CC1c1ccc2nccnc2c1 (stereo not shown) [Compound 13, 4-(3-([1,1′-Biphenyl]-3-yl)-5-(quinoxalin-6-yl)-4,5-dihydro-1H-pyrazol-1-yl)-4-oxobutanoic acid] | 5 ± 0.4 | 74.4 ± 3.3 | 97.2 ± 0.1 |
| CC(C)Oc1ccc(-c2ccc(C3=NN(C(=O)CCC(=O)O)C(c4ccc5nccnc5c4)C3)cc2)cn1 (stereo not shown) [Compound 107, 4-(3-(4-(6-Isopropoxypyridin-3-yl)phenyl)-5-(quinoxalin-6-yl)-4,5-dihydro-1H-pyrazol-1-yl)-4-oxobutanoic acid] |  | 33.4 ± 2.1 |  |
| Cc1ccc(-c2ccc(C3=NN(C(=O)CCC(=O)O)C(c4ccc5nccnc5c4)C3)cc2)cc1 (stereo not shown) [Compound 23, 4-(3-(4′-Methyl-[1,1′-biphenyl]-4-yl)-5-(quinoxalin-6-yl)-4,5-dihydro-1H-pyrazol-1-yl)-4-oxobutanoic acid] |  | 69 ± 3.7 | 94.8 ± 0.4 |
| O=C(O)c1cccc(N2N=C(c3ccc(-c4ccccc4)cc3)CC2c2ccc3nccnc3c2)c1 (stereo not shown) [Compound 61, 3-(3-([1,1′-Biphenyl]-4-yl)-5-(quinoxalin-6-yl)-4,5-dihydro-1H-pyrazol-1-yl)benzoic acid] | 13.1 | 88.3 ± 0.9 | 95.9 ± 0.6 |
| CCCCOc1ccc(-c2ccc(C3=NN(C(=O)CCC(=O)O)C(c4ccc5nccnc5c4)C3)cc2)cc1 (stereo not shown) [Compound 80, 4-(3-(4′-Butoxy-[1,1′-biphenyl]-4-yl)-5-(quinoxalin-6-yl)-4,5-dihydro-1H-pyrazol-1-yl)-4-oxobutanoic acid] | 21.9 ± 4.3 | 89.4 ± 2.5 |  |
| O=C1NC(=O)C(CC(=O)N2N=C(c3ccc(Cl)cc3)CC2c2ccc3nccnc3c2)S1 (stereo not shown) [Compound 63, 5-(2-(3-(4-Chlorophenyl)-5-(quinoxalin-6-yl)-4,5-dihydro-1H-pyrazol-1-yl)-2-oxoethyl)thiazolidine-2,4-dione] |  |  | 43.6 ± 2.9 |
| O=C(O)CCC(=O)N1N=C(c2ccccc2)CC1c1ccc2nccnc2c1 (stereo not shown) [Compound 1A, 4-Oxo-4-(3-phenyl-5-(quinoxalin-6-yl)-4,5-dihydro-1H-pyrazol-1-yl)butanoic acid] |  |  | < 5 |
| COc1cccc(C2CC(c3ccc(Cl)cc3)=NN2C(=O)CCC(=O)O)c1 (stereo not shown) [Compound 41, 4-(3-(4-Chlorophenyl)-5-(3-methoxyphenyl)-4,5-dihydro-1H-pyrazol-1-yl)-4-oxobutanoic acid] |  |  | 13.4 ± 3.2 |
| O=C(O)CCC(=O)N1N=C(c2ccc(-c3cccc(OC(F)(F)F)c3)cc2)CC1c1ccc2nccnc2c1 (stereo not shown) [Compound 21, 4-Oxo-4-(5-(quinoxalin-6-yl)-3-(3′-(trifluoromethoxy)-[1,1′-biphenyl]-4-yl)-4,5-dihydro-1H-pyrazol-1-yl)butanoic acid] | 15.8 ± 1.1 | 91.9 ± 1.5 | 97.9 |
| O=C(O)CCC(=O)N1N=C2c3cccc(-c4ccccc4)c3CCC2C1c1ccc2nccnc2c1 (stereo not shown) [Compound 129, 4-Oxo-4-(6-phenyl-3-(quinoxalin-6-yl)-3,3a,4,5-tetrahydro-2H-benzo[g]indazol-2-yl)butanoic acid] |  | 42.5 ± 15.8 |  |
| O=C(O)CCC(=O)N1N=C(c2ccc(-c3ccccc3)cc2F)CC1c1ccc2nccnc2c1 (stereo not shown) [Compound 109, 4-(3-(3-Fluoro-[1,1′-biphenyl]-4-yl)-5-(quinoxalin-6-yl)-4,5-dihydro-1H-pyrazol-1-yl)-4-oxobutanoic acid] |  | 40.4 ± 8.1 |  |
| O=C(O)CCC(=O)N1N=C(c2ccc(Cl)cc2)CC1c1ccc2nonc2c1 (stereo not shown) [Compound 35, 4-(5-(Benzo[c][1,2,5]oxadiazol-5-yl)-3-(4-chlorophenyl)-4,5-dihydro-1H-pyrazol-1-yl)-4-oxobutanoic acid] |  | 43.6 ± 6.6 | 91.3 ± 2.1 |
| O=C(O)CCC(=O)N1N=C(c2ccc(-c3ccc(OC4CCCC4)cc3)cc2)CC1c1ccc2nccnc2c1 (stereo not shown) [Compound 85, 4-(3-(4′-(Cyclopentyloxy)-[1,1′-biphenyl]-4-yl)-5-(quinoxalin-6-yl)-4,5-dihydro-1H-pyrazol-1-yl)-4-oxobutanoic acid] | 17.9 ± 7.3 | 71.8 ± 4.5 |  |
| COc1ccc(-c2cccc(C3=NN(C(=O)CCC(=O)O)C(c4ccc5nccnc5c4)C3)c2)cc1 (stereo not shown) [Compound 99, 4-(3-(4′-Methoxy-[1,1′-biphenyl]-3-yl)-5-(quinoxalin-6-yl)-4,5-dihydro-1H-pyrazol-1-yl)-4-oxobutanoic acid] |  | < 5 | 71.8 |
| COc1cc(C2CC(c3ccc(-c4ccccc4)cc3)=NN2C(=O)CCC(=O)O)ccc1O (stereo not shown) [Compound 46, 4-(3-([1,1′-Biphenyl]-4-yl)-5-(4-hydroxy-3-methoxyphenyl)-4,5-dihydro-1H-pyrazol-1-yl)-4-oxobutanoic acid] |  |  | 48.6 ± 1.7 |
